In PMC9170106, “Pre-clinical evaluation of LASSBio-1491: From in vitro pharmacokinetic study to in vivo leishmanicidal activity” (PLoS ONE, 2022):

What was measured:
PAMPA-BBB permeability = test: PAMPA-BBB permeability
Source text: The parallel artificial membrane permeability assay uses 96-well plate in a “sandwich” type system, where one plate overlaps the other (PAMPA). […] The lipid mixture that impregnates the PVDF filter has a different constitution for the permeability tests for the blood-brain barrier (Brain lipid from pig extract in dodecane) and gastro-intestinal tract (L-α soy phosphatidylcholine in dodecane). In the PAMPA BBB and TGI assays, the optical density values obtained in the reading at each selected wavelength, for each of the compounds were analyzed in comparison with the values of several controls. In the case of the BBB, these values were used to elaborate an equation and determine the permeability coefficient (Pe), using a previously elaborated spreadsheet, and, for the TGI, these values were used to determine the absorbed fraction (Fa%), both using the Excel® program.

Plasma stability = type: in vitro ADME, rat
Experimental: For analysis of plasma stability, the LASSBio-1491 in a final concentration of 5 μM from stock solution of 1 mM, was added in 50 μL of rat plasma solution diluted in 250 μL with PBS (pH 7.4) and was placed in a shaker at 37 °C under vigorous stirring for 0, 30, 60, 120 and 240 minutes. After each reaction time, 500 μL of cold methanol and 500 μL of cold acetonitrile containing 5 uM of methyl 1,1’biphenyl-4-carboxylate 5 μM (internal standard) were added to the wells to stop the reaction. The solution was mixed and centrifuged at 24500 x g for 15 min (Universal centrifuge 320R Hettich®). The supernatant (1 mL) was filtrated and placed in vials to be analyzed by HPLC-PDA, Shimadzu—LC20AD, Kromasil C-18 column (4.6 mm x 250 mm, 5 μm), SPD M20A diode array detector, flow 1 mL/min, mobile phase acetonitrile: water 1:1 (v/v) for LASSBio-1491 and acetonitrile: water 60:40 (v/v) for LASSBio-1736, for 20 minutes at 254 nm wavelength.

Microsomal metabolism [1] = type: in vitro ADME; conditions: rat liver microsomes
Experimental: The study of the microsomal metabolism of the compounds was evaluated by placing 1 mg/ml rat liver microsome in a microcentrifuge tube, in the presence of a NADPH generator system (1 mM NADP^+, 1.5 mM MgCl2, 3.5 mM glucose-6-phosphate and 0.5 U/mL glucose-6-phosphate dehydrogenase) and phosphate buffer pH 7.4 in sufficient quantity for 250 μL. After 15 minutes of pre-incubation at 37°C in a water bath, the enzymatic reactions were started by adding 2 μL of a stock solution 1 mM from one of the prototypes (500 μL 20% DMSO 80% CH3CN), so that a final concentration of 5 μM was reached (0.2% DMSO, 0.8% acetonitrile).
Then, the samples were again incubated at 37°C under agitation for predetermined and fixed periods (0, 15, 30, 45 and 60 minutes). At the end of the incubation period 500 μL of cold methanol and 500 μL of cold acetonitrile containing 5 μM of methyl 1,1’biphenyl-4-carboxylate 5 μM (internal standard) were added to the wells to stop the reaction and the samples were homogenized and kept in an ice bath to accelerate protein precipitation. The mixture was centrifuged at 24500 x g for 15 minutes at 4°C (Universal centrifuge 320R Hettich®). Finally, the supernatant (1 mL) was filtrated and placed in vials to be analyzed by HPLC-PDA, Shimadzu—LC20AD, Kromasil C-18 column (4.6 mm x 250 mm, 5 μm), SPD M20A diode array detector, flow 1 mL/min, mobile phase acetonitrile: water 1:1 (v/v) for LASSBio-1491 and acetonitrile: water 60:40 (v/v) for LASSBio-1736, 20 minutes at 254 nm wavelength. Then, the microsomal half-life and clearance were calculated.

spleen cells = test: Cytotoxicity against spleen cells (propidium iodide); conditions: Mus musculus, 24 h
Experimental: To carry out the suspension preparation of spleen cells, BALB/c mice were euthanized, and an incision was made to remove the spleen. The spleens were macerated using the end of the plungers from a 1 mL syringe in a 70 μm strainer placed in a Petri dish containing RPMI medium. […] After incubation for 4 min at room temperature, the cells were washed with RPMI medium. Subsequently, samples from three animals were pooled and the cell suspension was passed through a 40 μm strainer. Cells were counted in a Neubauer chamber and splenocytes were plated at a concentration of 5 x 10^5 cells per well in a 96-well culture plate. […] Moreover, spleen cells were also cultured just with medium (free of compounds or vehicle) or with DMSO 0.1%. […] After, the propidium iodide incorporation was performed according to the instructions of the Propidium Iodide Kit (Sigma, Copenhagen, Denmark). The splenocytes were analyzed in a FACS Canto II flow cytometer. The data files were saved using FACS Diva software and data analysis was done using Flow Jo software. […] Data obtained from experiments were expressed as the mean ± standard error of the mean (S.E.M.) of spleen died cells and statistical differences between the treated and the vehicle groups of experiments were evaluated by ANOVA and Dunnett hoc tests.

L. major LV39 = test: In vivo activity against Leishmania major LV39 substrain; set-up: species or system BALB/c mice
Experimental: Thus, 6-week-old female BALB/c mice weighing approximately 20 g were used. […] Briefly, ketamine (80mg/kg) and xylazine (8 mg/kg) were simultaneously used to anesthetize the mice by intraperitoneal injection. The promastigotes of L. major LV39 substrain in the stationary phase, harvested after the third passage (obtained from parasites frozen), were inoculated subcutaneously at a concentration of 1x 10^5 parasites in the right ear of mice. […] The size of the lesions was measured using a pachymeter. Thiopental (150 mg/kg, i.p.) was used to euthanize the mice and the quantitative limiting-dilution assay was used to determine the parasite burden of infected ears and draining lymph nodes. The results obtained from experiments were expressed as the mean ± S.E.M. with the data analyzed (size of the lesions or parasite burden) by ANOVA and Dunnett hoc tests, considering a significance level of p < 0.05.

Microsomal metabolism [2] = type: in vitro ADME; conditions: rat liver microsomes, without NADPH regenerating system
[3] = LASSBio-1491 10 μmol/Kg/day, glucantime 30 μmol/Kg/day x 28 days, i.p.

Papp (PAMPA-BBB permeability; PAMPA): 2.96 ×10⁻⁶ cm/s
Classification (PAMPA-BBB permeability; PAMPA-BBB): CNS+/-
Elimination rate constant (k) (Plasma stability; rat plasma): 0.0006
t1/2 (Plasma stability; rat plasma): 19.25 h
Metabolism rate (Plasma stability; rat plasma, 5 μM, 37 °C, up to 240 min): 15.11%
half-life at 5 μM (Plasma stability; rat, rat plasma diluted with PBS, pH 7.4, rat plasma): 28.9 h
recovery at 5 μM (Plasma stability; rat, rat plasma diluted with PBS, pH 7.4, read-out: Recovery rate): 88.5%
half-life at 5 μM (Microsomal metabolism [1]; pH 7.4, with co-factor): 2.68 h
microsomal CLint at 5 μM (Microsomal metabolism [1]; pH 7.4, with co-factor, Volume x (0,693/t1/2)): 1.07 µL/min/mg
Metabolism rate with co-factor (Microsomal metabolism [1]; with NADPH regenerating system): 25.46%
Elimination rate constant (k) (Microsomal metabolism [1]; with co-factor): 0.0043
Clapp (Microsomal metabolism [1]; with co-factor, scaled to liver and rat weight): 0.166 mL/min/kg
Metabolism rate non co-factor (Microsomal metabolism [2]): 10.87%
SMILES: O=C(N/N=C/c1ccc([N+](=O)[O-])o1)NNC(=O)c1ccc(Cl)cc1 [LASSBio-1491]
IC50 (spleen cells): > 100 µM
lesion size (L. major LV39; [3]): reduced lesion size only between days 7 and 17
parasite load in draining lymph node (L. major LV39; [3]): decreased parasite load
parasite load in infected ear (L. major LV39; [3]): decreased parasite load
times more efficient than glucantime (L. major LV39; similar effect at a dose three times lower): 3 times
